This is an account of results in US9266832B2, “Compounds for the treatment of neurodegenerative diseases” (Katholieke Universiteit Levun, priority 2010, dated 2016).

The assay relates to M17-TAU P301L cells. The assay can be described thus: Tau-induced toxicity experiment: LDH leakage of retinoic acid incubated M17-TAU P301L cells. In kind it is cell-based. The following applies: Homo sapiens, Neuroblastoma cell, 168 h; reduction of LDH activity of retinoic acid incubated M17-TAU P301L neuroblastoma cells, 7 days. An excerpt: A TAU expression plasmid was constructed by sub-cloning the cDNA of human TAU-P301L (encoding for TAU with proline 301 substituted by a leucine residue) into mammalian expression vector pcDNA3.1 resulting in plasmid pcDNA3.1-TAU P301L. Plasmids pcDNA3.1 and pcDNA3.1-TAU P301L were transfected to human neuroblastoma cells ([…]; ATCC No. CRL-2267) and independent clonal lines with the plasmids stably integrated into the genome were selected. […] Expression of the TAU P301L genes in the cell lines was confirmed by Western analysis.
In degenerated or dead cells lactate dehydrogenase (LDH) is leaked out of the cells into the extracellular environment due to a loss of plasma-membrane integrity. This principle was used to determine cytotoxicity by quantifying the level of leaked LDH into the growth medium.
The detailed method for determining TAU cytotoxicity was as follows: From appropriate precultures of M17-3.1 and M17-TAU(P301L) cells were seeded at 2500 cells/cm2 in Optimem Reduced Serum without phenol red (Gibco, Cat. 31985-047) supplemented with 1% fetal calf serum, 1 mM sodium pyruvate, 1× non-essential amino acids, 500 μg/ml G418 0.5× antibiotic/antimycotic. After 3 h of incubation at 37° C./5% CO2 1 volume of Optimem Reduced Serum (same as described above; except without fetal calf serum) supplemented with 2.5 μM retinoic acid (RA) was added. The cells were further incubated for 7 days. Subsequently, LDH activity was determined using Promega Cytotox 96 Non-Radioactive cytotoxicity assay, (Cat. G1780) according the supplier's instructions.
The M17-TAU P301L cell line made it possible to assess the ability of novel compounds to counteract TAU cytotoxicity. […] These measurements were used to calculate EC50 values of table 2.
A general note: Release of lactate dehydrogenase indicates damage to the cell membrane.

By EC50 is commonly meant the midpoint of the concentration-response curve. A lower EC50 goes with an effect from little substance. Take `CN(c1ccc(C(=O)NCCc2c[nH]c3ccc(Cl)cc23)cc1)c1cccc(F)c1` [Cpd104, N-(2-(5-chloro-1H-indol-3-yl)ethyl)-4-((3-fluorophenyl)(methyl)amino)benzamide]: a half-maximal effect (EC50) was put at 264 nM.

`O=C(NCCc1c[nH]c2ccc(Cl)cc12)c1ccc(Cn2cccn2)cc1` [Cpd011, 4-((1H-pyrazol-1-yl)methyl)-N-(2-(5-chloro-1H-indol-3-yl)ethyl)benzamide]: the EC50 turned out to be 173 nM.

With `Cc1ccccc1Cc1ccc(C(=O)NCCc2c[nH]c3ccc(Cl)cc23)cc1` [Cpd028, N-(2-(5-chloro-1H-indol-3-yl)ethyl)-4-(2-methylbenzyl)benzamide], the EC50 came out at 370 nM.

As for `O=C(NCCc1c[nH]c2ccc(Cl)cc12)c1ccc(Cc2ccsc2)cc1` [Cpd080, N-(2-(5-chloro-1H-indol-3-yl)ethyl)-4-(thiophen-3-ylmethyl)benzamide], a half-maximal response (EC50) required 18 nM.

As for `O=C(NCCc1c[nH]c2ncc(Cl)cc12)c1ccc(Cc2cccc(F)c2)cc1` [Cpd101, N-(2-(5-chloro-1H-pyrrolo[2,3-b]pyridin-3-yl)ethyl)-4-(3-fluorobenzyl)benzamide], the EC50 turned out to be 1050 nM.

Compound `O=C(NCCc1c[nH]c2ccc(Cl)cc12)c1ccc(Cc2ccc(F)cc2)cc1` [Cpd061, N-(2-(5-chloro-1H-indol-3-yl)ethyl)-4-(4-fluorobenzyl)benzamide] displayed an EC50 of 86 nM.

Regarding `O=C(NCCc1c[nH]c2ccc(Cl)cc12)c1ccc(Cc2ccccc2F)cc1` [Cpd049, N-(2-(5-chloro-1H-indol-3-yl)ethyl)-4-(2-fluorobenzyl)benzamide], the response was half-maximal at 31 nM (EC50).

As for `O=C(NCCc1c[nH]c2ccc(Cl)cc12)c1ccc(Cc2cc(F)cc(F)c2)cc1` [Cpd067, N-(2-(5-chloro-1H-indol-3-yl)ethyl)-4-(3,5-difluorobenzyl)benzamide], the EC50 was 111 nM.

Turning to `O=C(NCCc1c[nH]c2ccc(Cl)cc12)c1ccc(Cc2ccco2)cc1` [Cpd087, N-(2-(5-chloro-1H-indol-3-yl)ethyl)-4-(furan-2-ylmethyl)benzamide], the EC50 was determined as 133 nM.

Regarding `Cc1cccc(Cc2cccc(C(=O)NCCc3c[nH]c4ccc(Cl)cc34)c2)c1` [Cpd035, N-(2-(5-chloro-1H-indol-3-yl)ethyl)-3-(3-methylbenzyl)benzamide], a half-maximal effect (EC50) was put at 60 nM.

The compound `O=C(NCCc1c[nH]c2ccc(C(F)(F)F)cc12)c1ccc(Cc2cccc(F)c2)cc1` [Cpd108, 4-(3-fluorobenzyl)-N-(2-(5-(trifluoromethyl)-1H-indol-3-yl)ethyl)benzamide] had an EC50 of 320 nM. Compared with the last compound, the EC50 is about 5.3-fold higher.

`Cc1cccc(Cc2ccc(C(=O)NCCc3c[nH]c4ccc(Cl)cc34)cc2)c1` [Cpd036, N-(2-(5-chloro-1H-indol-3-yl)ethyl)-4-(3-methylbenzyl)benzamide] returned an EC50 of 40 nM.

`O=C(NCCc1c[nH]c2ccc(Cl)cc12)c1ccc(Nc2ccccc2)cc1` [Cpd092, N-(2-(5-chloro-1H-indol-3-yl)ethyl)-4-(phenylamino)benzamide] returned an EC50 of 76 nM.

The compound `O=C(NCCc1c[nH]c2ccc(Cl)cc12)c1ccc(Cc2cccc(C(F)(F)F)c2)cc1` [Cpd042, N-(2-(5-chloro-1H-indol-3-yl)ethyl)-4-(3-(trifluoromethyl)benzyl)benzamide] came in with an EC50 of 31 nM.

Compound `O=C(NCCc1c[nH]c2ccc(Cl)cc12)c1ccc(Oc2ccccc2)cc1` [Cpd093, N-(2-(5-chloro-1H-indol-3-yl)ethyl)-4-phenoxybenzamide] showed an EC50 of 293 nM.

For `N#Cc1ccc2[nH]cc(CCNC(=O)c3ccc(Cc4cccc(F)c4)cc3)c2c1` [Cpd115, N-(2-(5-cyano-1H-indol-3-yl)ethyl)-4-(3-fluorobenzyl)benzamide], the EC50 was 75 nM.

In turn, `N#Cc1ccc(Cc2cccc(C(=O)NCCc3c[nH]c4ccc(Cl)cc34)c2)cc1` [Cpd037, N-(2-(5-chloro-1H-indol-3-yl)ethyl)-3-(4-cyanobenzyl)benzamide] registered an EC50 of 32 nM.

In turn, `O=C(NCCc1c[nH]c2ccc(Cl)cc12)c1ccccc1Cc1ccccc1` [Cpd009, 2-benzyl-N-(2-(5-chloro-1H-indol-3-yl)ethyl)benzamide] returned an EC50 of 240 nM.

`O=C(NCCc1c[nH]c2ccc(Cl)cc12)c1cccc(Cc2cc(F)cc(F)c2)c1` [Cpd065, N-(2-(5-chloro-1H-indol-3-yl)ethyl)-3-(3,5-difluorobenzyl)benzamide] registered an EC50 of 174 nM. The EC50 values of the last two compounds are within 1.5-fold of each other.

`O=C(NCCc1c[nH]c2ccc(Cl)cc12)c1ccc(Cc2cccs2)cc1` [Cpd079, N-(2-(5-chloro-1H-indol-3-yl)ethyl)-4-(thiophen-2-ylmethyl)benzamide] displayed an EC50 of 81 nM.

Turning to `O=C(NCCc1c[nH]c2ccc(Cl)cc12)c1ccc(Nc2cccc(F)c2)cc1` [Cpd106, N-(2-(5-chloro-1H-indol-3-yl)ethyl)-4-(3-fluorophenylamino)benzamide], it took 82 nM to reach a half-maximal effect (EC50). The EC50 values of the last two compounds are within 1.5-fold of each other.

As to `CN(c1ccccc1)c1cccc(C(=O)NCCc2c[nH]c3ccc(Cl)cc23)c1` [Cpd097, N-(2-(5-chloro-1H-indol-3-yl)ethyl)-3-(methyl(phenyl)amino)benzamide], the response was half-maximal at 270 nM (EC50).

In turn, `N#Cc1cccc(Cc2ccc(C(=O)NCCc3c[nH]c4ccc(Cl)cc34)cc2)c1` [Cpd032, N-(2-(5-chloro-1H-indol-3-yl)ethyl)-4-(3-cyanobenzyl)benzamide] yielded an EC50 of 14 nM.

Regarding `N#Cc1cccc(Cc2ccc(C(=O)NCc3c[nH]c4ccc(Cl)cc34)cc2)c1` [Cpd072, N-((5-chloro-1H-indol-3-yl)methyl)-4-(3-cyanobenzyl)benzamide], the EC50 was 132 nM.

With `O=C(NCCc1c[nH]c2ccc(Cl)cc12)c1ccc(Cc2cccc(F)c2)cn1` [Cpd107, N-(2-(5-chloro-1H-indol-3-yl)ethyl)-5-(3-fluorobenzyl)picolinamide], the EC50 was found to be 26 nM.

In the case of `O=C(NCCc1c[nH]c2ccc(Cl)cc12)c1cccc(Cn2cccn2)c1` [Cpd006, 3-((1H-pyrazol-1-yl)methyl)-N-(2-(5-chloro-1H-indol-3-yl)ethyl)benzamide], the EC50 was 256 nM.

`O=C(NCCc1c[nH]c2ccc(Cl)cc12)c1ccc(CNCC2CCCCC2)cc1` [Cpd018, N-(2-(5-chloro-1H-indol-3-yl)ethyl)-4-((cyclohexylmethylamino)methyl)benzamide] had an EC50 of 168 nM.

In turn, `O=C(NCCc1c[nH]c2ccc(Cl)cc12)c1ccc(Cc2ccc(C(F)(F)F)cc2)cc1` [Cpd039, N-(2-(5-chloro-1H-indol-3-yl)ethyl)-4-(4-(trifluoromethyl)benzyl)benzamide] returned an EC50 of 22 nM.

The compound `N#Cc1cccc(Nc2cccc(C(=O)NCCc3c[nH]c4ccc(Cl)cc34)c2)c1` [Cpd064, N-(2-(5-chloro-1H-indol-3-yl)ethyl)-3-(3-cyanophenylamino)benzamide] had an EC50 of 122 nM.

As for `O=C(NCCc1c[nH]c2ccc(Cl)cc12)c1ccc(Cc2cccc(F)c2)c(F)c1` [Cpd100, N-(2-(5-chloro-1H-indol-3-yl)ethyl)-3-fluoro-4-(3-fluorobenzyl)benzamide], the concentration giving a half-maximal response (EC50) amounted to 44 nM. This EC50 lies about 2.8-fold lower than the previous one.

For the compound `Cc1ccc(Cc2ccc(C(=O)NCCc3c[nH]c4ccc(Cl)cc34)cc2)cc1` [Cpd033, N-(2-(5-chloro-1H-indol-3-yl)ethyl)-4-(4-methylbenzyl)benzamide], a half-maximal effect (EC50) was put at 31 nM.

`CN(c1ccccc1)c1ccc(C(=O)NCCc2c[nH]c3ccc(Cl)cc23)cc1` [Cpd096, N-(2-(5-chloro-1H-indol-3-yl)ethyl)-4-(methyl(phenyl)amino)benzamide]: it took 470 nM to reach a half-maximal effect (EC50).

`O=C(NCCc1c[nH]c2ccc(Cl)cc12)c1ccc(Cc2ccoc2)cc1` [Cpd081, N-(2-(5-chloro-1H-indol-3-yl)ethyl)-4-(furan-3-ylmethyl)benzamide] displayed an EC50 of 23 nM.

For `O=C(NCCc1c[nH]c2ccc(-c3ccccc3)cc12)c1ccc(Cc2cccc(F)c2)cc1` [Cpd111, 4-(3-fluorobenzyl)-N-(2-(5-phenyl-1H-indol-3-yl)ethyl)benzamide], the EC50 amounted to 537 nM.

As to `O=C(NCCc1c[nH]c2ccc(Cl)cc12)c1cccc(Cc2cccc(C(F)(F)F)c2)c1` [Cpd044, N-(2-(5-chloro-1H-indol-3-yl)ethyl)-3-(3-(trifluoromethyl)benzyl)benzamide], the midpoint of the response, the EC50, lay at 55 nM.

`O=C(NCCc1c[nH]c2ccc(Cl)cc12)c1cccc(Nc2ccccc2)c1` [Cpd094, N-(2-(5-chloro-1H-indol-3-yl)ethyl)-3-(phenylamino)benzamide] gave an EC50 of 161 nM. Against the preceding compound, the EC50 is about 2.9-fold higher.

In turn, `O=C(NCCc1c[nH]c2ccc(Cl)cc12)c1cccc(Cc2ccccc2F)c1` [Cpd054, N-(2-(5-chloro-1H-indol-3-yl)ethyl)-3-(2-fluorobenzyl)benzamide] returned an EC50 of 42 nM.

As to `COc1ccc(Cc2cccc(C(=O)NCCc3c[nH]c4ccc(Cl)cc34)c2)cc1` [Cpd057, N-(2-(5-chloro-1H-indol-3-yl)ethyl)-3-(4-methoxybenzyl)benzamide], the EC50 was determined as 147 nM.

The compound `Cc1cccc(Oc2cccc(C(=O)NCCc3c[nH]c4ccc(Cl)cc34)c2)c1` [Cpd090, N-(2-(5-chloro-1H-indol-3-yl)ethyl)-3-(m-tolyloxy)benzamide] yielded an EC50 of 91 nM.
